Laboratory results taken from ChEMBL document CHEMBL1641589, “Phosphoramidate pronucleotides of cytostatic 6-aryl-7-deazapurine ribonucleosides” (Bioorg Med Chem, 2011).

Key:
CCRF-CEM [1] = test: Cytotoxicity against human CCRF-CEM cells after 3 days by XTT assay; type: functional, cell-based; details: 72 h
HL-60 = test: Cytotoxicity against human HL60 cells after 5 days by SRB assay; type: functional; details: HL-60, 120 h
[2] = Chemical stability of the compound assessed as specific activity per ug at 30 uM after 30 mins in presence of purified cathepsin A; type: physicochemical; details: 0.5 h
DU-145 = test: Cytotoxicity against human DU145 cells after 5 days by SRB assay; type: functional; details: DU-145, 120 h
HCT-116 = test: Cytotoxicity against human HCT116 cells after 5 days by SRB assay; type: functional; details: HCT-116, 120 h
NCI-H23 = test: Cytotoxicity against human NCI-H23 cells after 5 days by SRB assay; type: functional; details: NCI-H23, 120 h
[3] = Chemical stability of the compound assessed as specific activity per ug at 30 uM after 30 mins in presence of purified carboxylesterase 2; type: physicochemical; details: isolated protein, 0.5 h
HepG2 = test: Cytotoxicity against human HepG2 cells after 3 days by XTT assay; type: functional, cell-based; details: HepG2, 72 h
[4] = Cytotoxicity against human Hs578 cells after 5 days by SRB assay; type: functional; details: Hs578, 120 h
[5] = Cytotoxicity against human HeLaS3 cells after 3 days by XTT assay; type: functional, cell-based; details: HeLa S3, 72 h
[6] = Chemical stability of the compound assessed as specific activity per ug at 30 uM after 30 mins in presence of purified carboxylesterase 1; type: physicochemical; details: isolated protein, 0.5 h
CCRF-CEM [7] = test: Cell cycle arrest in human CCRF-CEM cells assessed as accumulation at G1 phase at IC50 concentration using propidium iodide staining by flow cytometry relative to control; type: functional
CCRF-CEM [8] = test: Cell cycle arrest in human CCRF-CEM cells assessed as accumulation at S phase at IC50 concentration using propidium iodide staining by flow cytometry relative to control; type: functional
CCRF-CEM [9] = test: Cell cycle arrest in human CCRF-CEM cells assessed as increased of cellular debris level at IC50 concentration using propidium iodide staining by flow cytometry relative to control; type: functional
CCRF-CEM [10] = test: Cell cycle arrest in human CCRF-CEM cells assessed as accumulation at G2/M phase at IC50 concentration using propidium iodide staining by flow cytometry relative to control; type: functional
[11] = Permeability from basolateral to apical side of human Caco2 cells at 10 uM after 60 to 120 mins by HPLC analysis; type: ADME, cell-based; details: Caco-2
[12] = Permeability from apical to basolateral side at 10 uM after 60 to 120 mins by HPLC analysis; type: ADME; details: not told
[13] = Permeability from apical to basolateral side of human Caco2 cells at 10 uM after 60 to 120 mins by HPLC analysis; type: ADME, cell-based; details: Caco-2
[14] = Efflux ratio of permeability from basolateral to apical side over apical to basolateral side in human Caco2 cells at 10 uM after 60 to 120 mins by HPLC analysis; type: ADME, cell-based; details: Caco-2

| Compound | IC50 (CCRF-CEM [1]) [µM] | GI50 (HL-60) [µM] | Stability [2] [pmol/min] | GI50 (DU-145) [µM] | GI50 (HCT-116) [µM] | GI50 (NCI-H23) [µM] | Stability [3] [pmol/min] | IC50 (HepG2) [µM] | GI50 [4] [µM] | IC50 [5] [µM] | Stability [6] [pmol/min] | Activity (CCRF-CEM [7]) [%] | Activity (CCRF-CEM [8]) [%] | Activity (CCRF-CEM [9]) [%] | Activity (CCRF-CEM [10]) [%] | Papp B→A at 10 µM [11] [×10⁻⁶ cm/s] | Papp A→B at 10 µM [12] [×10⁻⁶ cm/s] | Papp A→B at 10 µM [13] [×10⁻⁶ cm/s] | efflux ratio at 10 µM [14] |
| --- | --- | --- | --- | --- | --- | --- | --- | --- | --- | --- | --- | --- | --- | --- | --- | --- | --- | --- | --- |
| COC(=O)[C@H](C)NP(=O)(OC[C@H]1O[C@@H](n2ccc3c(-c4ccco4)ncnc32)[C@H](O)[C@@H]1O)Oc1ccccc1 (stereo partly drawn) | 3.44 | 3.31 | 1249 | 1.19 | 1.03 | 4.63 | 0 | 1.2 | 2.31 | 1.4 | 86 | – | – | – | – | – | – | – | – |
| CCOC(=O)[C@H](C)NP(=O)(OC[C@H]1O[C@@H](n2ccc3c(-c4ccco4)ncnc32)[C@H](O)[C@@H]1O)Oc1ccccc1 (stereo partly drawn) | 3.34 | 4.86 | 11989 | 2.29 | 2.5 | 2.87 | 0 | 1.42 | 2.18 | 1.02 | 149 | 26.6 | 55.3 | 42.5 | 18.06 | – | – | – | – |
| C[C@H](NP(=O)(OC[C@H]1O[C@@H](n2ccc3c(-c4ccco4)ncnc32)[C@H](O)[C@@H]1O)Oc1ccccc1)C(=O)OCc1ccccc1 (stereo partly drawn) | 1.13 | 2.19 | 14727 | 1.36 | 1.08 | 1.91 | 0 | 0.62 | 1.04 | 0.58 | 133 | 31.6 | 54.7 | 48.8 | 13.7 | – | – | – | – |
| COC(=O)[C@H](C)NP(=O)(OC[C@H]1O[C@@H](n2ccc3c(-c4ccoc4)ncnc32)[C@H](O)[C@@H]1O)Oc1ccccc1 (stereo partly drawn) | > 10 | > 10 | – | 3.86 | 7.95 | > 10 | – | 3.61 | > 10 | 7.84 | – | – | – | – | – | – | – | – | – |
| CCOC(=O)[C@H](C)NP(=O)(OC[C@H]1O[C@@H](n2ccc3c(-c4ccoc4)ncnc32)[C@H](O)[C@@H]1O)Oc1ccccc1 (stereo partly drawn) | > 10 | > 10 | – | 9.05 | 9.06 | 8.28 | – | 2.96 | 5.97 | 4.89 | – | – | – | – | – | – | – | – | – |
| C[C@H](NP(=O)(OC[C@H]1O[C@@H](n2ccc3c(-c4ccoc4)ncnc32)[C@H](O)[C@@H]1O)Oc1ccccc1)C(=O)OCc1ccccc1 (stereo partly drawn) | 3.11 | > 10 | – | 1.09 | 1.42 | 5.19 | – | 2.01 | 1.1 | 1.31 | – | 37.5 | 54 | 21.5 | 8.4 | – | – | – | – |
| COC(=O)[C@H](C)NP(=O)(OC[C@H]1O[C@@H](n2ccc3c(-c4cccs4)ncnc32)[C@H](O)[C@@H]1O)Oc1ccccc1 (stereo partly drawn) | 8.47 | > 10 | – | 3.23 | 6.22 | 6.79 | – | 1.41 | 6.59 | 2.51 | – | – | – | – | – | 9.75 | 35.1 | 0.74 | 13.3 |
| CCOC(=O)[C@H](C)NP(=O)(OC[C@H]1O[C@@H](n2ccc3c(-c4cccs4)ncnc32)[C@H](O)[C@@H]1O)Oc1ccccc1 (stereo partly drawn) | > 10 | > 10 | – | > 10 | > 10 | 10.9 | – | 1.53 | 9.6 | 5.93 | – | – | – | – | – | 9.62 | 33.8 | 0.76 | 12.7 |
| C[C@H](NP(=O)(OC[C@H]1O[C@@H](n2ccc3c(-c4cccs4)ncnc32)[C@H](O)[C@@H]1O)Oc1ccccc1)C(=O)OCc1ccccc1 (stereo partly drawn) | 2.09 | – | – | 0.989 | 0.68 | 5.12 | – | 0.88 | 1.42 | 1.56 | – | 30.7 | 57.9 | 49.5 | 11.5 | 13.2 | 29.9 | 1.1 | 12 |
| COC(=O)[C@H](C)NP(=O)(OC[C@H]1O[C@@H](n2ccc3c(-c4ccsc4)ncnc32)[C@H](O)[C@@H]1O)Oc1ccccc1 (stereo partly drawn) | > 10 | > 10 | 1496 | > 10 | > 10 | > 10 | 0 | > 10 | > 10 | > 10 | 167 | – | – | – | – | – | – | – | – |
| CCOC(=O)[C@H](C)NP(=O)(OC[C@H]1O[C@@H](n2ccc3c(-c4ccsc4)ncnc32)[C@H](O)[C@@H]1O)Oc1ccccc1 (stereo partly drawn) | > 10 | > 10 | – | > 10 | > 10 | > 10 | – | > 10 | > 10 | > 10 | – | – | – | – | – | – | – | – | – |
| C[C@H](NP(=O)(OC[C@H]1O[C@@H](n2ccc3c(-c4ccsc4)ncnc32)[C@H](O)[C@@H]1O)Oc1ccccc1)C(=O)OCc1ccccc1 (stereo partly drawn) | > 10 | > 10 | – | 3.57 | 7.51 | 7.44 | – | 4.58 | 7.56 | 5.45 | – | 35.9 | 54.2 | 22.2 | 9.9 | – | – | – | – |
| COC(=O)[C@H](C)NP(=O)(OC[C@H]1O[C@@H](n2ccc3c(-c4ccccc4)ncnc32)[C@H](O)[C@@H]1O)Oc1ccccc1 (stereo partly drawn) | > 10 | > 10 | – | > 10 | > 10 | > 10 | – | > 10 | > 10 | > 10 | – | – | – | – | – | – | – | – | – |
| CCOC(=O)[C@H](C)NP(=O)(OC[C@H]1O[C@@H](n2ccc3c(-c4ccccc4)ncnc32)[C@H](O)[C@@H]1O)Oc1ccccc1 (stereo partly drawn) | > 10 | > 10 | – | – | > 10 | – | – | > 10 | > 10 | > 10 | – | – | – | – | – | – | – | – | – |
| C[C@H](NP(=O)(OC[C@H]1O[C@@H](n2ccc3c(-c4ccccc4)ncnc32)[C@H](O)[C@@H]1O)Oc1ccccc1)C(=O)OCc1ccccc1 (stereo partly drawn) | > 10 | 5.65 | – | – | > 10 | – | – | > 10 | > 10 | > 10 | – | – | – | – | – | – | – | – | – |
| COC(=O)[C@H](C)NP(=O)(OC[C@H]1O[C@@H](n2ccc3c(-c4cccc5c4oc4ccccc45)ncnc32)[C@H](O)[C@@H]1O)Oc1ccccc1 (stereo partly drawn) | > 10 | > 10 | – | – | > 10 | – | – | > 10 | > 10 | > 10 | – | – | – | – | – | – | – | – | – |
| CCOC(=O)[C@H](C)NP(=O)(OC[C@H]1O[C@@H](n2ccc3c(-c4cccc5c4oc4ccccc45)ncnc32)[C@H](O)[C@@H]1O)Oc1ccccc1 (stereo partly drawn) | > 10 | > 10 | – | – | > 10 | – | – | > 10 | > 10 | > 10 | – | – | – | – | – | – | – | – | – |
| C[C@H](NP(=O)(OC[C@H]1O[C@@H](n2ccc3c(-c4cccc5c4oc4ccccc45)ncnc32)[C@H](O)[C@@H]1O)Oc1ccccc1)C(=O)OCc1ccccc1 (stereo partly drawn) | > 10 | > 10 | – | – | > 10 | – | – | > 10 | > 10 | > 10 | – | – | – | – | – | – | – | – | – |
| OC[C@H]1O[C@@H](n2ccc3c(-c4cccc5c4oc4ccccc45)ncnc32)[C@H](O)[C@@H]1O | > 10 | > 10 | – | – | > 10 | – | – | > 10 | > 10 | > 10 | – | – | – | – | – | – | – | – | – |
| OC[C@H]1O[C@@H](n2ccc3c(-c4ccoc4)ncnc32)[C@H](O)[C@@H]1O | – | 1.5 | – | – | – | – | – | 1.72 | – | – | – | – | – | – | – | – | – | – | – |
| OC[C@H]1O[C@@H](n2ccc3c(-c4ccsc4)ncnc32)[C@H](O)[C@@H]1O | – | > 40 | – | – | – | – | – | 3.22 | – | – | – | – | – | – | – | – | – | – | – |
| OC[C@H]1O[C@@H](n2ccc3c(-c4ccco4)ncnc32)[C@H](O)[C@@H]1O | – | 0.81 | – | – | – | – | – | 0.47 | – | – | – | – | – | – | – | – | – | – | – |
| OC[C@H]1O[C@@H](n2ccc3c(-c4ccccc4)ncnc32)[C@H](O)[C@@H]1O | 1 | – | – | 0.075 | 5.7 | – | – | > 10 | 3.1 | 4.1 | – | – | – | – | – | – | – | – | – |
| OC[C@H]1O[C@@H](n2ccc3c(-c4cccs4)ncnc32)[C@H](O)[C@@H]1O | 8.8 | 1.2 | – | – | – | – | – | 1.19 | – | 0.29 | – | – | – | – | – | 9.31 | 34.1 | 1.57 | 5.9 |
